According to publication PMC7991740, “Introduction of Non-natural Amino Acids Into T-Cell Epitopes to Mitigate Peptide-Specific T-Cell Responses” (Frontiers in Immunology, 2021):
*1 amine or outer side, *2 acyl side, *3 side chain or, on linkers, in order; H or OH if unused. Where a SMILES comes first, the peptide text is derived from it. [ ]: non-standard residue; d: D form. X1 = NCCCC[C@@H](C(=O)[*:2])N(C[C@@H]1CCCN1)[*:1]

How the values were obtained:
Test in all cases: biochemical
Format in all cases: binding
HLA-DRB1*07:01 = HLA-DRB1*07:01 (Homo sapiens, UniProt P01903+P01911, A100R/A102G/A103Q/D57E/D86V/E43K/F76Y/K127E/L162R/M171V/P40G/Q125H/Q99D/R33Q/R42Y/R54Q/S133A/S66F/T210M/V115G/Y107V/Y59L/Y89S); settings: […]; mean of at least two independent experiments; read-out: IC50 DRB1*0701 (converted)
HLA-DRB5*01:01 = biological target: T1, HLA-DRB5*01:01 (Homo sapiens, UniProt P01903+Q30154); settings: […]; mean of at least two independent experiments; read-out: IC50 DRB5*0101
T1 construct: Human leukocyte antigen-DR molecules were immunopurified from homozygous EBV B lymphoblastoid cells; endogenous in cells

HLA-DRB1*04:01 = biological target: T2, HLA-DRB1*04:01 (Homo sapiens, UniProt P01903+P01911, A100K/A169T/F76Y/I96L/K127E/L162R/M171V/N62H/P40V/Q125Y/R42H/S133A/S149N/S66Y/V115G/V209L/W38E); settings: […]; mean of at least two independent experiments; read-out: IC50 DRB1*0401
T2 construct: Human leukocyte antigen-DR molecules were immunopurified from homozygous EBV B lymphoblastoid cells; endogenous in cells

HLA-DRB1*01:01 = biological target: T3, HLA-DRB1*01:01 (Homo sapiens, UniProt P01903+P01911, A100R/D57E/F55L/F60I/F76Y/I96L/L162R/M171V/P40L/Q125E/R42F/V115G/Y59C); settings: […]; mean of at least two independent experiments; read-out: IC50 DRB1*0101
T3 construct: Human leukocyte antigen-DR molecules were immunopurified from homozygous EBV B lymphoblastoid cells; endogenous in cells

HLA-DRB1*11:01 = HLA-DRB1*11:01 (Homo sapiens, UniProt P01903+P01911, A100R/A169T/A87E/I96F/K41T/L162R/M171V/P40S/Q125H/Q178H/Q39Y/Q99D/R42S/S66Y/T262R/V115G/W38E); settings: […]; mean of at least two independent experiments; read-out: IC50 DRB1*1101 (converted)
HLA-DRB1*11:01, sequence (P01903 26-254 limits assumed, other chains not shown): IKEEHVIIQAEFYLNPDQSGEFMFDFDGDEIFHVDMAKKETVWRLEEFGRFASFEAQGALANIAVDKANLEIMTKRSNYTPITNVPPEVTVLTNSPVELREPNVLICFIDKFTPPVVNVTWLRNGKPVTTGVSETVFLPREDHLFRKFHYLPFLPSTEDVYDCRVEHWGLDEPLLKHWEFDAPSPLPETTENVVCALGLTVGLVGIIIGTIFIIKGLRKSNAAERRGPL

SMILES: CC(C)C[C@H](NC(=O)[C@H](CCCCN)NC(=O)[C@H](CC(C)C)NC(=O)[C@@H](NC(=O)[C@H](CC(N)=O)NC(=O)[C@H](CCC(N)=O)NC(=O)[C@H](CCCCN)NC(=O)[C@@H](NC(=O)[C@H](Cc1ccc(O)cc1)NC(=O)[C@H](CCCCN)NC[C@@H]1CCCN1)C(C)C)[C@@H](C)O)C(=O)N[C@@H](C)C(=O)N[C@H](C(=O)O)[C@@H](C)O [Rd1] (H-[X1]YVKQNTLKLAT-OH; N-terminus and C-terminus assumed)
- IC50 (HLA-DRB1*07:01): 0.14 µM
- IC50 (HLA-DRB5*01:01): 0.12 µM
- IC50 (HLA-DRB1*04:01): 0.025 µM
- IC50 (HLA-DRB1*01:01): 0.002 µM
- IC50 (HLA-DRB1*11:01): 2.5 µM
